Data from PubChem BioAssay AID1996.
Values after ≈ are worked out from the molar mass of the structure shown.

Settings: buffer; pH 7.4; 200.0 µM

SMILES | solubility kinetic [mg/mL]
CN1CCN(c2ccc(CNC(=O)c3cc4ccccc4o3)cc2)CC1 | 0.0495 (≈ 142 µM)
O=C(COC(=O)/C=C/c1ccccc1)NC1CCCCCC1 | 0.0104 (≈ 34.5 µM)
COc1cc(C)c(S(=O)(=O)NOCc2ccccc2)c(C)c1C | 0.0055 (≈ 16.4 µM)
CCN(CC)S(=O)(=O)c1ccc(-c2csc(C)n2)s1 | 0.0136 (≈ 43 µM)
O=C(c1ccco1)N1CCN(c2ccc([N+](=O)[O-])cc2Cl)CC1 | 0.0038 (≈ 11.3 µM)
CC(C)(C)n1cnc2cc(NCc3ccccc3O)ccc21 | 0.0345 (≈ 117 µM)
COC(=O)c1cccc(NC(=O)c2ccc3c(c2)C(=O)N(C(C)(C)C)C3=O)c1 | < 0.0004
CCOP(=O)(OCC)C(Nc1ccc(C)cc1)c1ccco1 (centres undefined) | 0.0463 (≈ 143 µM)
Cc1cc(C)cc(C(=O)NC(=S)Nc2cccnc2)c1 | 0.0084 (≈ 29.4 µM)
Cc1cccc(OCCn2cnc(Cl)c2Cl)c1 | 0.0277 (≈ 102 µM)
O=C(NC1CCCCCC1)C(Cc1ccccc1)n1cccc1 (centres undefined) | 0.0106 (≈ 34.1 µM)
O=C(O/N=C1\CCCc2ccccc21)c1cccs1 | < 0.0006
COc1ccc(C2NC(=O)NC3=C2C(=O)CCC3)cc1 (centres undefined) | > 0.0408
Cc1ccc(CC(CC(=O)O)C(=O)Nc2ccc(Cl)cc2)cc1 (centres undefined) | 0.0486 (≈ 146 µM)
Cc1cc(C(=O)COC(=O)C2CC2)c(C)n1-c1ccc(F)cc1 | 0.0129 (≈ 40.9 µM)
O=C(c1cccnc1)c1ncc(C(F)(F)F)cc1Cl | 0.0357 (≈ 125 µM)
Cc1cccc(C)c1NC(=O)CNC(=O)c1ccncc1 | > 0.0425
NC(=O)c1c(/N=C/c2cccs2)sc2c1CCCC2 | 0.0184 (≈ 63.4 µM)
COc1cc([N+](=O)[O-])ccc1Nc1nc(C)cc(C)n1.Cl | 0.0005
CCOc1ccc(N2C(=O)CC(NCC3CCCO3)C2=O)cc1 (centres undefined) | > 0.0478

SMILES | solubility kinetic [mg/mL]
O=C(Cn1cnc2ccccc21)c1ccc(Br)cc1 | 0.04 (≈ 127 µM)
Cc1ccc(C(C)C)c(OCCCCCN2CCOCC2)c1 | 0.0128 (≈ 41.9 µM)
COc1ccc(C(=O)N2CCN(C(=O)C3CCCO3)CC2)cc1[N+](=O)[O-] (centres undefined) | > 0.0545
COc1ccc(CC(=O)N2CCN=C2SC)cc1OC | > 0.0442
COc1ccccc1CC(=O)NC1CCN(Cc2ccccc2)CC1 | > 0.0508
COc1ccccc1OCCn1c(=O)oc2ccc(C)cc21 | 0.0042 (≈ 14 µM)
Cc1ccc(NC(=O)Cc2c(F)cccc2Cl)cc1S(=O)(=O)N1CCOCC1 | 0.002 (≈ 4.68 µM)
COc1ccc(Cl)cc1NC(=O)C(OC)c1ccccc1 (centres undefined) | 0.0039 (≈ 12.8 µM)
CN(Cc1ccccc1)C(=O)COC(=O)c1cc(=O)c2ccccc2o1 | > 0.0527
O=C(O)CSC(=S)N1CCCC1 | 0.0267 (≈ 130 µM)
c1ccc(CCNCCCOc2cccc3ccccc23)cc1 | 0.0371 (≈ 121 µM)
CC1CCCN(C(=O)COC(=O)C2=COCCO2)C1 (centres undefined) | > 0.0404
O=C1NC(Cc2ccccc2)C(=O)Nc2ccc(Br)cc21 (centres undefined) | 0.0157 (≈ 45.5 µM)
CCOC(=O)c1ccc(NC(=O)c2cc(C)nc3ccccc23)cc1 | < 0.0004
O=C(NCc1ccco1)c1cc([N+](=O)[O-])ccc1N1CCOCC1 | 0.0464 (≈ 140 µM)
COc1ccc(S(=O)(=O)NC2CC2)cc1Br | > 0.0459
COc1ccc(N(C)C(=O)Nc2ccc3nsnc3c2)cc1 | 0.0275 (≈ 87.5 µM)
Cc1ncc([N+](=O)[O-])n1Cc1cccc(F)c1 | > 0.0353
CCC(CO)N=CC1=C(O)CC(c2ccccc2)CC1=O (centres undefined) | > 0.0431
CC(NC(=O)COC(=O)c1ccc2c(c1)OCCO2)c1ccccc1 (centres undefined) | 0.0114 (≈ 33.4 µM)

SMILES | solubility kinetic [mg/mL]
Cc1cccc(C(=O)Nc2ccc(NC(=O)c3ccccc3)cc2)c1 | 0.001 (≈ 3.03 µM)
COc1cc2c(cc1OC)C(NC(=O)C(F)(F)F)CNC2=O (centres undefined) | > 0.0477
Cc1cc(C)c2c(CC(=O)NCCc3ccccc3)coc2c1 | < 0.0007
Cc1cc(C)c2c(n1)sc1c(=O)n(CC(=O)c3ccccc3)cnc12 | < 0.0002
O=C(COC(=O)c1cccnc1Cl)NC(=O)NC1CCCCC1 | > 0.051
COCCNC(=S)N(CCc1c(C)[nH]c2ccc(C)cc12)Cc1ccco1 | 0.0152 (≈ 39.4 µM)
COc1ccccc1C(=O)Nc1nsc(-c2ccccc2)n1 | 0.0088 (≈ 28.3 µM)
COc1cccc(CNC(=O)CCCc2c[nH]c3ccccc23)c1 | 0.047 (≈ 146 µM)
CC(C)c1ccc(N2C(=O)C3C4C=CC(CC4)C3C2=O)cc1 (centres undefined) | 0.0027 (≈ 9.14 µM)
CCc1ccc(N2C(=O)C(Cl)=C(N3CCCCCC3)C2=O)cc1 | 0.0017 (≈ 5.11 µM)
CC(C)(C)c1ccc(Oc2ccc(N)cn2)cc1 | > 0.0363
O=C(Nc1cccnc1)C1CC(=O)N(c2ccc(F)cc2)C1 (centres undefined) | > 0.0449
C=C(C)C(=O)Nc1cccnc1Oc1ccc(F)cc1F | 0.0408 (≈ 141 µM)
COc1cc(C(=O)OCC#N)ccc1OCc1c(C)noc1C | 0.004 (≈ 12.6 µM)
O=C(Nc1cc(S(=O)(=O)N2CCCC2)ccc1Cl)c1ccncc1 | > 0.0549
O=C(NC1CCCC1)c1c(O)nc2sccn2c1=O | > 0.0419
Cc1nc2ccccc2c(=O)n1-c1cc(F)ccc1F | > 0.0408
COc1ccc(NC(=O)CN2CCCC2)cc1 | 0.034 (≈ 145 µM)
CCC(=O)Nc1ccc(C(=O)CN2CCC(C)CC2)cc1 | 0.0394 (≈ 137 µM)
